Measured values: patent US20060069132A1, “Azolecarboxamide herbicides” (priority 2004, published 2006)

Tests used:
barnyardgrass [1] = assay: Test A pre-/postemergence herbicide test; type: in vivo, Echinochloa crus-galli; conditions: for Plant response rating, Barnyardgrass: Postemergence; for Barnyardgrass plant response rating: Preemergence
In short: (§1)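 Plants are held in greenhouse about ten days after treatment, then compared with untreated controls and scored 0 (no effect) to 100 (complete control). Preemergence dosing is a directed soil spray on sown sandy loam; postemergence dosing is spray to runoff at 2–10 cm height.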

[2] = system: small flower umbrella sedge; assay: Test B flooded paddy test; type: in vivo, Cyperus difformis; conditions: 1000 g ai/ha, visual rating, scale 0 to 100 (0 no effect, 100 complete control), 13 to 15 days
In short: (§2)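 Visual control ratings, 0–100 versus untreated controls, taken after 13 to 15 days in the greenhouse. Blackgrass received a postemergence spray at the 1- to 4-leaf stage (2–18 cm); ducksalad, umbrella sedge and barnyardgrass were flooded-paddy treated at 2 leaves.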

cocklebur = assay: Test B pre-/postemergence herbicide test; type: in vivo, Xanthium strumarium
In short: (§3)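 Response was scored visually 13 to 15 days after treatment against untreated greenhouse controls, 0 meaning no effect and 100 complete control. Formulations (solvent mixture plus surfactant) went onto soil after planting, onto foliage of 1- to 4-leaf plants, and onto 2-leaf plants in a flooded paddy set including rice and barnyardgrass.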

corn = assay: Test B pre-/postemergence herbicide test; type: in vivo, Zea mays
In short: as §3

redroot pigweed = assay: Test A pre-/postemergence herbicide test; type: in vivo, Amaranthus retroflexus; conditions: for Plant response rating, Pigweed: Postemergence; for Pigweed plant response rating: Preemergence
In short: as §1

velvetleaf [3] = assay: Test A pre-/postemergence herbicide test; type: in vivo, Abutilon theophrasti; conditions: for Velvetleaf plant response rating: Preemergence
In short: as §1

giant foxtail [4] = assay: Test A pre-/postemergence herbicide test; type: in vivo, Setaria faberi; conditions: for Plant response rating, Foxtail, Giant: Postemergence; for Foxtail, Giant plant response rating: Preemergence
In short: as §1

rice [5] = assay: Test B pre-/postemergence herbicide test; type: in vivo, Oryza sativa
In short: as §3

morningglory [6] = assay: Test B pre-/postemergence herbicide test; type: in vivo, Ipomoea coccinea
In short: as §3

large crabgrass [7] = assay: Test B pre-/postemergence herbicide test; type: in vivo, Digitaria sanguinalis
In short: as §3

barnyardgrass [8] = assay: Test B pre-/postemergence herbicide test; type: in vivo, Echinochloa crus-galli
In short: as §3

morningglory [9] = assay: Test A pre-/postemergence herbicide test; type: in vivo, Ipomoea spp.; conditions: for Plant response rating, Morningglory: Postemergence; for Morningglory plant response rating: Preemergence
In short: as §1

Surinam grass = assay: Test B pre-/postemergence herbicide test; type: in vivo, Urochloa decumbens
In short: as §3

velvetleaf [10] = assay: Test B pre-/postemergence herbicide test; type: in vivo, Abutilon theophrasti
In short: as §3

lambsquarters = assay: Test B pre-/postemergence herbicide test; type: in vivo, Chenopodium album
In short: as §3

wild oat = assay: Test B postemergence herbicide test; type: in vivo, Avena fatua; conditions: scale 0 (no effect) to 100 (complete control)
In short: (§4)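 Treated at 2-leaf (paddy) or 1–4-leaf, 2–18 cm (postemergence); greenhouse 13–15 d; visual score vs control, 0 none to 100 complete control; dash = not tested.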

ducksalad = assay: Test B flooded paddy test; type: in vivo, Heteranthera limosa; conditions: 1000 g ai/ha, visual rating, scale 0 to 100 (0 no effect, 100 complete control), 13 to 15 days
In short: as §2

rice [11] = assay: Test B flooded paddy test; type: in vivo, Oryza sativa; conditions: 1000 g ai/ha, visual rating, scale 0 to 100 (0 no effect, 100 complete control), 13 to 15 days
In short: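 Postemergence plants were sprayed with formulated test chemicals at 2 to 18 cm height (1- to 4-leaf stage); paddy species were grown to the 2-leaf stage. After 13 to 15 days in a greenhouse, injury was rated visually against untreated controls on a 0–100 scale (0 = no effect, 100 = complete control).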

pigweed = assay: Test B pre-/postemergence herbicide test; type: in vivo, Amaranthus retroflexus
In short: as §3

wheat = assay: Test B postemergence herbicide test; type: in vivo, Triticum aestivum; design: key to Wheat plant response rating: 0 = no effect, 100 = complete control; conditions: scale 0 (no effect) to 100 (complete control)
In short: as §4

giant foxtail [12] = assay: Test B pre-/postemergence herbicide test; type: in vivo, Setaria faberi
In short: as §3

blackgrass = assay: Test B postemergence herbicide test; type: in vivo, Alopecurus myosuroides; conditions: scale 0 (no effect) to 100 (complete control)
In short: as §2

large crabgrass [13] = assay: Test A pre-/postemergence herbicide test; type: in vivo, Digitaria sanguinalis; conditions: for Plant response rating, Crabgrass, Large: Postemergence; for Crabgrass, Large plant response rating: Preemergence
In short: as §1

barnyardgrass [14] = assay: Test B flooded paddy test; type: in vivo, Echinochloa crus-galli; conditions: 1000 g ai/ha, visual rating, scale 0 to 100 (0 no effect, 100 complete control), 13 to 15 days
In short: as §2

[15] = 500 g ai/ha, 0 to 100 scale, 0 no effect, 100 complete control
[16] = 2000 g ai/ha, 0 to 100 scale, 0 no effect, 100 complete control
[17] = 500 g ai/ha, visual rating, 0 to 100 scale (0 no effect, 100 complete control)
[18] = Postemergence, 500 g ai/ha, visual rating after 13 to 15 days, scale 0 (no effect) to 100 (complete control)
[19] = Preemergence, 500 g ai/ha, scale 0 to 100
[20] = postemergence, 125 g ai/ha, visual rating, scale 0 (no effect) to 100 (complete control)
[21] = preemergence, 125 g ai/ha, 0 to 100 scale, 0 is no effect, 100 is complete control
[22] = Postemergence, 500 g ai/ha, visual rating after 13 to 15 days
[23] = postemergence, 125 g ai/ha, visual rating

## CCn1nc(C(C)(C)C)cc1C(=O)Nc1cccc2c1CNC2=O [Compound 52]
Barnyardgrass [1]; [15]
  Plant response rating, Barnyardgrass: 25
Barnyardgrass [1]; [16]
  Plant response rating, Barnyardgrass: 55
  Barnyardgrass plant response rating: 90
Barnyardgrass [1]; [17]
  Barnyardgrass plant response rating: 25
[2]
  Sedge, Umbrella plant response rating: 40
cocklebur; [18]
  Plant response rating, Cocklebur: 40
cocklebur; [19]
  Cocklebur plant response rating: 10
cocklebur; [20]
  Cocklebur plant response rating: 20
cocklebur; [21]
  Plant response rating, Cocklebur: 0
corn; [18]
  Plant response rating, Corn: 40
corn; [19]
  Corn plant response rating: 0
corn; [20]
  Corn plant response rating: 10
corn; [21]
  Plant response rating, Corn: 0
Redroot pigweed; [15]
  Plant response rating, Pigweed: 30
Redroot pigweed; [16]
  Plant response rating, Pigweed: 35
  Pigweed plant response rating: 90
Redroot pigweed; [17]
  Pigweed plant response rating: 90
Velvetleaf [3]; Postemergence, 2000 g ai/ha, 0 to 100 scale, 0 no effect, 100 complete control
  Plant response rating, Velvetleaf: 20
Velvetleaf [3]; [17]
  Velvetleaf plant response rating: 15
Velvetleaf [3]; [16]
  Velvetleaf plant response rating: 50
Giant foxtail [4]; [15]
  Plant response rating, Foxtail, Giant: 25
Giant foxtail [4]; [16]
  Plant response rating, Foxtail, Giant: 25
  Foxtail, Giant plant response rating: 60
Giant foxtail [4]; [17]
  Foxtail, Giant plant response rating: 20
Rice [5]; [19]
  Rice plant response rating: 80
Rice [5]; [21]
  Plant response rating, Rice: 0
Morningglory [6]; [18]
  Plant response rating, Morningglory: 0
Morningglory [6]; [19]
  Morningglory plant response rating: 0
Morningglory [6]; [20]
  Morningglory plant response rating: 0
Morningglory [6]; [21]
  Plant response rating, Morningglory: 0
Large crabgrass [7]; [18]
  Plant response rating, Crabgrass, Large: 10
Large crabgrass [7]; [19]
  Crabgrass, Large plant response rating: 90
Large crabgrass [7]; [20]
  Crabgrass, Large plant response rating: 0
Large crabgrass [7]; [21]
  Plant response rating, Crabgrass, Large: 20
Barnyardgrass [8]; [18]
  Plant response rating, Barnyardgrass: 0
Barnyardgrass [8]; [19]
  Barnyardgrass plant response rating: 60
Barnyardgrass [8]; [20]
  Barnyardgrass plant response rating: 0
Barnyardgrass [8]; [21]
  Plant response rating, Barnyardgrass: 10
Morningglory [9]; [15]
  Plant response rating, Morningglory: 0
Morningglory [9]; [16]
  Plant response rating, Morningglory: 0
  Morningglory plant response rating: 10
Morningglory [9]; [17]
  Morningglory plant response rating: 0
Surinam grass; [18]
  Plant response rating, Surinam Grass: 0
Surinam grass; [19]
  Surinam Grass plant response rating: 30
Surinam grass; [20]
  Surinam Grass plant response rating: 0
Surinam grass; [21]
  Plant response rating, Surinam Grass: 0
Velvetleaf [10]; [18]
  Plant response rating, Velvetleaf: 20
Velvetleaf [10]; [19]
  Velvetleaf plant response rating: 20
Velvetleaf [10]; [20]
  Velvetleaf plant response rating: 10
Velvetleaf [10]; [21]
  Plant response rating, Velvetleaf: 0
lambsquarters; [18]
  Plant response rating, Lambsquarters: 80
lambsquarters; [19]
  Lambsquarters plant response rating: 90
lambsquarters; [20]
  Lambsquarters plant response rating: 0
lambsquarters; [21]
  Plant response rating, Lambsquarters: 0
Wild oat; [22]
  Plant response rating, Oat, Wild: 10
Wild oat; [23]
  Oat, Wild plant response rating: 0
ducksalad
  Ducksalad plant response rating: 20
Rice [11]
  Rice plant response rating: 0
pigweed; [18]
  Plant response rating, Pigweed: 10
pigweed; [19]
  Pigweed plant response rating: 90
pigweed; [20]
  Pigweed plant response rating: 0
pigweed; [21]
  Plant response rating, Pigweed: 0
wheat; [22]
  Plant response rating, Wheat: 0
wheat; [23]
  Wheat plant response rating: 0
Giant foxtail [12]; [18]
  Plant response rating, Foxtail, Giant: 10
Giant foxtail [12]; [19]
  Foxtail, Giant plant response rating: 60
Giant foxtail [12]; [20]
  Foxtail, Giant plant response rating: 10
Giant foxtail [12]; [21]
  Plant response rating, Foxtail, Giant: 10
blackgrass; [22]
  Plant response rating, Blackgrass: 0
blackgrass; [23]
  Blackgrass plant response rating: 0
Large crabgrass [13]; [15]
  Plant response rating, Crabgrass, Large: 0
Large crabgrass [13]; [16]
  Plant response rating, Crabgrass, Large: 20
  Crabgrass, Large plant response rating: 90
Large crabgrass [13]; [17]
  Crabgrass, Large plant response rating: 70
Barnyardgrass [14]
  Barnyardgrass plant response rating: 20
